# According to US10183949B2, “Pyrimidinone derivative having autotaxin-inhibitory activity” (The University of Tokyo, priority 2014, dated 2019):
# Where two headings read alike, the source gives them in different places.
# Target: T1, Human autotaxin enzyme (Homo sapiens, UniProt Q13822)
# T1 construct: purchased R&D System
# Test: Evaluation of autotaxin inhibitor, 18:0 Lyso PC / choline assay (Test Example 2)
# Format: biochemical
# In short: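 Human autotaxin in 100 mM Tris-HCl pH 7.5, 150 mM NaCl, 5 mM MgCl2, 0.05% Triton X-100 reacted with 18:0 Lyso PC (200 μM stock) and test compound 2 h at room temperature. Released choline quantified via choline oxidase/peroxidase resorufin fluorescence (ex 531/em 598 nm, 20 min); inhibition vs no-compound and no-enzyme controls, concentration-response curve.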
# [1] = human autotaxin enzyme, 18:0 Lyso PC substrate, choline assay, room temperature 2 hours, read-out: Inhibitor activity (IC50)
# [2] = autotaxin inhibition, IC50 class, read-out: Inhibitor activity
Structure (SMILES),IC50 [1] [nM],IC50 [2] [nM]
CCS(=O)(=O)N1CCC(NC(=O)Cn2c(CCCC(F)(F)F)nc(-c3ccc(C(F)(F)F)cc3)cc2=O)CC1 [Compound I-0370],100 to 1000,
Cc1nc(-c2ccc(Cl)cc2NC(=O)C2CC2)cc(=O)n1CC(=O)NC(C)(C)CF [Compound I-0424],10 to 100,
N#CC1(NC(=O)Cn2c3nc(cc2=O)-c2ccc(Cl)cc2NC(=O)/C=C/CCO3)CC1 [Compound I-0257],,10 to 100
CCCCCc1nc(-c2ccc(Cl)cc2)cc(=O)n1CC(=O)N1CCOC[C@H]1C(=O)O [Compound I-0067],100 to 1000,
Cc1nc(-c2ccc(Cl)cc2NC(=O)C2CC2)cc(=O)n1CC(=O)NCC1(CO)CC1 [Compound I-0434],10 to 100,
COC(=O)Nc1cc(C#N)ccc1-c1cc(=O)n(CC(=O)NC2(C#N)CC2)c(C)n1 [Compound I-0394],< 10,
CCc1nc(-c2ccc(Cl)cc2NC(C)=O)cc(=O)n1CC(=O)NC1(C#N)CC1 [Compound I-0256],,10 to 100
CC(C)(C)NC(=O)c1cccc(Cn2cnc(-c3ccc(Cl)cc3NC(=O)C(C)(C)C)cc2=O)c1 [Compound I-0477],100 to 1000,
COC(=O)Nc1cc(C#N)ccc1-c1cc(=O)n(CC(=O)NCC2(CO)CC2)c(C)n1 [Compound I-0417],10 to 100,
COC(=O)Cn1c(CCCC(F)(F)F)nc(-c2ccc(C(F)(F)F)cc2)cc1=O [Compound I-0254],,10 to 100
COC(=O)c1ccc(Cn2c(CCCC(F)(F)F)nc(-c3ccc(Cl)cc3)cc2=O)s1 [Compound I-0312],100 to 1000,
Cc1nc(-c2ccc(Cl)cc2NC(=O)C2CC2)cc(=O)n1CC(=O)NC1(c2ccc(F)cc2)COC1 [Compound I-0484],10 to 100,
CCCCCc1nc(-c2ccc(Cl)cc2)cc(=O)n1CC(=O)NC1CCC(C(=O)O)CC1 (stereo not shown) [Compound I-0063],< 10,
Cc1nc(-c2ccc(Cl)cc2NC(=O)C(C)(C)C)cc(=O)n1Cc1cccc(C(=O)O)c1 [Compound I-0290],< 10,
O=C(NCC1(CO)COC1)c1ccc(Cn2c(CCCC(F)(F)F)nc(-c3ccc(Cl)cc3)cc2=O)o1 [Compound I-0355],100 to 1000,
COC(=O)Nc1cc(C#N)ccc1-c1cc(=O)n(CC(=O)N2CCC(O)CC2)c(C)n1 [Compound I-0418],10 to 100,
Cc1nc(-c2ccc(Cl)cc2NC(=O)C2CC2)cc(=O)n1CC(=O)NCc1cc(=O)[nH]o1 [Compound I-0452],10 to 100,
CC(C)(C)C(=O)Nc1cc(Cl)ccc1-c1cc(=O)n(Cc2cccc(C(=O)N3CCC(C(N)=O)CC3)c2)cn1 [Compound I-0497],10 to 100,
N#CCCNC(=O)Cn1c(CCCC(F)(F)F)nc(-c2ccc(Cl)cc2)cc1=O [Compound I-0137],10 to 100,
CC(C)(C)N1CCN(c2cc(=O)n(CC(=O)NC3(C#N)CC3)c(CCCC(F)(F)F)n2)CC1 [Compound I-0239],≥ 1000,
CCCCCc1nc(-c2ccc(Cl)cc2)cc(=O)n1Cc1ccccc1 [Compound I-0007],≥ 1000,
CS(=O)(=O)CCNC(=O)c1cccc(Cn2c(CCCC(F)(F)F)nc(-c3ccc(Cl)cc3)cc2=O)c1 [Compound I-0177],100 to 1000,

Structure (SMILES),IC50 [1] [nM],IC50 [2] [nM]
O=C(c1cccc(Cn2c(CCCC(F)(F)F)nc(-c3ccc(Cl)cc3)cc2=O)c1)N(CCO)CCO [Compound I-0197],100 to 1000,
CCS(=O)(=O)N1CCN(C(=O)Cn2c(CCCC(F)(F)F)nc(-c3ccc(C(F)(F)F)cc3)cc2=O)CC1 [Compound I-0366],100 to 1000,
COC(=O)Nc1cc(Cl)ccc1-c1cc(=O)n(CC(=O)NC2(C#N)CC2)c(C)n1 [Compound I-0403],10 to 100,
CCC(CO)(CO)NC(=O)Cn1c(CCCC(F)(F)F)nc(-c2ccc(Cl)cc2)cc1=O [Compound I-0144],10 to 100,
Cc1nc(-c2ccc(Cl)cc2NC(=O)C2CC2)cc(=O)n1CC(=O)N1CC(C(C)(C)O)C1 [Compound I-0454],100 to 1000,
CN(C)C(=O)CNC(=O)c1cccc(Cn2c(CCCC(F)(F)F)nc(-c3ccc(Cl)cc3)cc2=O)c1 [Compound I-0183],10 to 100,
NC(=O)C1CCN(C(=O)Cn2c(CCCC(F)(F)F)nc(-c3ccc(C(F)(F)F)cc3)cc2=O)CC1 [Compound I-0342],10 to 100,
CCCCCNc1nc(-c2ccc(C(F)(F)F)cc2)cc(=O)n1Cc1cccc(C(=O)NC(Cc2ccccc2)C(=O)O)c1 (stereo not shown) [Compound I-0014],100 to 1000,
CC(=O)Nc1cc(Cl)ccc1-c1cc(=O)n(CC(=O)N2CCN(CCC(=O)c3ccc4[nH]c(=O)oc4c3)CC2)cn1 [Compound I-0499],100 to 1000,
CCCCCc1nc(-c2ccc(Cl)cc2)cc(=O)n1CC(=O)NC1CCS(=O)(=O)C1 (stereo not shown) [Compound I-0081],10 to 100,
COC(=O)Nc1cc(Cl)ccc1-c1cc(=O)n(CC(=O)N2CCC(C(=N)NO)CC2)c(C)n1 [Compound I-0471],10 to 100,
O=C(Cn1c(CCCC(F)(F)F)nc(-c2ccc(Cl)cc2)cc1=O)NCC1(CO)CC1 [Compound I-0124],10 to 100,
CCCCCc1nc(-c2ccc(Cl)cc2)cc(=O)n1CC(=O)N1CCC(C(=O)O)CC1 [Compound I-0042],< 10,
CC(=O)Nc1cc(Cl)ccc1-c1cc(=O)n(CC(=O)NC2(C#N)CC2)c(C)n1 [Compound I-0248],,10 to 100
CCCCCc1nc(-c2ccc(Cl)cc2)cc(=O)n1CC(=O)NC(C(=O)O)c1ccc(O)cc1 (stereo not shown) [Compound I-0060],10 to 100,
COC(=O)Nc1cc(C#N)ccc1-c1cc(=O)n(CC(=O)NCc2c[nH]nn2)c(C)n1 [Compound I-0414],< 10,
N#CC1CN(C(=O)Cn2c(CCCC(F)(F)F)nc(-c3ccc(C(F)(F)F)cc3)cc2=O)C1 [Compound I-0314],10 to 100,
O=C(NCC1(CO)COC1)c1cccc(Cn2c(CCCC(F)(F)F)nc(-c3ccc(Cl)cc3)cc2=O)c1 [Compound I-0194],100 to 1000,
Cc1nc(-c2ccc(Cl)cc2NC(=O)C(C)(C)C)cc(=O)n1CC(=O)NC(C)(C)C [Compound I-0273],10 to 100,
NC(=S)C1CCN(C(=O)Cn2c(CCCC(F)(F)F)nc(-c3ccc(C(F)(F)F)cc3)cc2=O)CC1 [Compound I-0353],10 to 100,
O=C(NCC1(CO)COC1)c1cccc(Cn2c(CCCC(F)(F)F)nc(-c3ccc(Cl)cc3)cc2=O)n1 [Compound I-0358],10 to 100,
Cc1nc(-c2ccc(Cl)cc2NC(=O)C2CC2)cc(=O)n1CC(=O)N1CCC(C(N)=O)CC1 [Compound I-0463],10 to 100,

Structure (SMILES),IC50 [1] [nM],IC50 [2] [nM]
CNC(=O)NC1CCN(C(=O)Cn2c(CCCC(F)(F)F)nc(-c3ccc(C(F)(F)F)cc3)cc2=O)CC1 [Compound I-0356],< 10,
Cc1nc(-c2ccc(Cl)cc2NC(=O)C2CC2)cc(=O)n1CC(=O)NCC1CNC(=O)O1 (stereo not shown) [Compound I-0456],10 to 100,
CCCCCc1nc(-c2ccc(Cl)cc2)cc(=O)n1CC(=O)NC1(C(=O)O)CCOCC1 [Compound I-0058],≥ 1000,
CC(O)CNC(=O)Cn1c(CCCC(F)(F)F)nc(-c2ccc(C(F)(F)F)cc2)cc1=O (stereo not shown) [Compound I-0303],10 to 100,
Cc1nc(-c2ccc(C#N)cc2NC(=O)C(C)(C)C)cc(=O)n1CC(=O)O [Compound I-0260],≥ 1000,
Cc1nc(-c2ccc(F)cc2NC(=O)C(C)(C)C)cc(=O)n1Cc1cccc(C(=O)O)c1 [Compound I-0278],10 to 100,
CCCCCc1nc(-c2ccc(Cl)cc2)cc(=O)n1CC(=O)NCCS(C)(=O)=O [Compound I-0094],10 to 100,
CCCCCc1nc(-c2ccc(Cl)cc2)cc(=O)n1CC(=O)NC1CN2CCC1CC2 (stereo not shown) [Compound I-0104],100 to 1000,
COC(=O)Nc1cc(C#N)ccc1-c1cc(=O)n(CC(=O)NC2(C)COC2)c(C)n1 [Compound I-0397],10 to 100,
CCS(=O)(=O)N1CCN(C(=O)c2cccc(Cn3cnc(-c4ccc(Cl)cc4NC(=O)C(C)(C)C)cc3=O)c2)CC1 [Compound I-0501],10 to 100,
Cc1nc(-c2ccc(Cl)cc2NC(=O)C2CC2)cc(=O)n1CC(=O)NCC(C)(C)O [Compound I-0423],10 to 100,
CN(CC(O)CO)C(=O)Cn1c(CCCC(F)(F)F)nc(-c2ccc(Cl)cc2)cc1=O (stereo not shown) [Compound I-0132],100 to 1000,
CCCCCc1nc(-c2ccc(Cl)cc2)cc(=O)n1CC(=O)N1CCCC(c2ccc(C(=O)O)cc2)C1 (stereo not shown) [Compound I-0047],100 to 1000,
CN(CC#N)C(=O)c1cccc(Cn2c(CCCC(F)(F)F)nc(-c3ccc(Cl)cc3)cc2=O)c1 [Compound I-0155],100 to 1000,
N#CC1(NC(=O)Cn2c(CCCC(F)(F)F)nc(C3=CCC(C(F)(F)F)CC3)cc2=O)CC1 (stereo not shown) [Compound I-0232],< 10,
N#CC1(NC(=O)Cn2c(CCCC(F)(F)F)nc(N3CCC(C(F)(F)F)CC3)cc2=O)CC1 [Compound I-0217],10 to 100,
O=C(Cn1cnc(-c2ccc(Cl)cc2)cc1=O)NCCCCCCNC(=O)c1ccc2nn[nH]c2c1 [Compound I-0483],100 to 1000,
CCCCCc1nc(-c2ccc(Cl)cc2)cc(=O)n1CC(=O)NC(CC)C(=O)O (stereo not shown) [Compound I-0051],< 10,
CCNC(=O)N1CCC(NC(=O)Cn2c(CCCC(F)(F)F)nc(-c3ccc(C(F)(F)F)cc3)cc2=O)CC1 [Compound I-0363],10 to 100,
N#CC1(NC(=O)Cn2c(CCCC(F)(F)F)nc(N3CCC(F)(F)CC3)cc2=O)CC1 [Compound I-0237],100 to 1000,
